Reference: patent US20080107619A1, “Carbohydrate based cellulase inhibitors as feeding stimulants in termites” (University of Florida Research Foundation, Inc., priority 2006, published 2008)
“Also recorded” adds a separate entry of the source.

Tests used:
R. flavipes = settings: choice tests; Waller et al.; cited from earlier work
R. virginicus = settings: choice tests; Waller et al.; cited from earlier work
[1] = test system: Formosan Subterranean Termite β-glucosidases; settings: after feeding; Zhu et al.; cited from earlier work
[2] = test system: R. flavipes worker termites; test: Validative feeding bioassays with mono- and di-saccharides; format: in vivo; settings: no-choice tests; concentrations tested 0.004-3.0% wt/wt; FIG. 12A

## O=C[C@H](O)[C@@H](O)[C@H](O)CO [xylose]
R. flavipes
  consumption of treated paper substrates versus untreated controls: consumed more paper substrates
R. virginicus
  consumption of treated paper substrates versus untreated controls: consumed more paper substrates

## OC[C@H]1O[C@@](CO)(O[C@H]2O[C@H](CO)[C@@H](O)[C@H](O)[C@H]2O)[C@@H](O)[C@@H]1O [sucrose]
R. flavipes
  consumption of treated paper substrates versus untreated controls: consumed more paper substrates
R. virginicus
  consumption of treated paper substrates versus untreated controls: consumed more paper substrates

## COc1cc(C=CC(=O)O)cc(OC)c1O (stereo in doubt) [sinapinic acid]
[1]
  inhibition: completely ineffective

## OC[C@H]1O[C@H](O[C@H]2[C@H](O)[C@@H](O)C(O)O[C@@H]2CO)[C@H](O)[C@@H](O)[C@@H]1O (mixture of isomers) [maltose]
[2]
  feeding stimulation: generally a feeding deterrent; also recorded: no significant feeding stimulation

## O=C[C@H](O)[C@@H](O)[C@H](O[C@@H]1O[C@H](CO)[C@@H](O)[C@H](O)[C@H]1O)[C@H](O)CO [cellobiose]
[2]
  feeding stimulation: no significant feeding stimulation
